# Results: US6242428A, “Nucleoside analogs and uses in treating Plasmodium falciparum infection” (Unisearch Limited, priority 1998, dated 2001)
# “Also recorded” adds a separate entry of the source. Read-outs that look alike come from different tables or passages of the source.
# Experiments:
# P. falciparum = test: In vitro toxicity against P. falciparum in culture (radiolabelled hypoxanthine incorporation / lactate dehydrogenase assay); format: cell-based, Plasmodium falciparum, FCQ27; settings: for toxicity against P. falciparum, in words: statement in the transport and metabolism study
# Experimental: P. falciparum, FCQ27, was maintained in culture using the techniques described by Trager & Jensen (W. Traqer and J. B. Jensen, Science, 193 673-675 (1976)). Cultures containing 2% hematocrit suspensions of parasitized human type O^+ erythrocytes in RPMI 1640 medium, supplemented with 25 mM HEPES-KOH, pH 7.2, 25 mM NaHCO3 and 10% human type O^+ serum (v/v) are maintained in modular incubator chambers at 37° C. in a gas mixture of 5% O2, 5% CO2 and 90% N2. The isolate of P. falciparum used in these experiments was FCQ27, routinely maintained in synchronized or asynchronous in vitro cultures at low hematocrit.
# The potential toxicity of nucleoside analogues against P. falciparum in culture was tested in microtitre plates over the range of drug concentrations for 24 hours. The procedures for monitoring parasite viability is well established (A. M. Gero, H. V. Scott, W. J. O'Sullivan and R. I. Christopherson, Mol. Biochem. Parasitol. 34, 87-89 (1989)) and is based on radiolabelled hypoxanthine or isoleucine incorporation. The incorporation of [G-^3 H]hypoxanthine into the nucleic acids of P. falciparum was used to assess the viability of the parasite in vitro. Microculture plates were prepared with each well containing 225 μl of a 2% hematocrit culture of asynchronous parasited erythrocytes (1% parasitized cells). Each plate, containing varying concentrations of the drug to be studied (up to 200 μM final concentration for initial screen), was incubated for 24 h at 37° C. in a gas mixture of 5% O2, 5% CO2 and 90% N2, at which point [G-^3 H] hypoxanthine was added to each well and the incubation continued under identical conditions for a further 18-20 h. The control infected cells (i.e. without drug), routinely reached a parasitemia of 6-8% before harvesting. Expediency was aided by 96-well plate counter using lactate dehydrogenase for the drug susceptibility assay (L. K. Basco, F. Marguet, M. T. Makler and J. Lebbras, Exp. Parasitol. 80, 260-271 (1995); M. T. Makler and D. J. Hinrichs; Am. J. Trop. Med. Hyg. 48, 205-210 (1993)). This assay gave the identical results to the hypoxanthine technique. In addition, for each experiment, microscopic counting of Giemsa stained thin slides was used as a control.
# The biological screen involved evaluation of the compounds against the protozoan P. falciparum in in vitro culture. The range of drug concentrations was used independently by two assays. One, radiolabelled hypoxanthine incorporation into the nucleic acid of P. falciparum, and the other, more expedient assay, a 96-well plate susceptibility assay using lactate dehydrogenase. Both assays gave identical results. In addition, microscopic counting of Giemsa stained thin slides was used as a control. Examples of experimental curves are attached as Appendix 2. The biological tests were done at several concentrations. The highest concentration was 200 μM, the compounds were considered active at concentrations less than 40 μM.
# [1] = system: P. falciparum infected erythrocytes (trophozoites); format: in vitro ADME, human erythrocytes infected with Plasmodium falciparum
# Experimental: The metabolism of the L-nucleoside conjugates was studied by HPLC analysis. The primary aim was to determine their ability to be catabolized by parasite purine salvage enzymes. Some effect on the purine metabolic pools was also observed.
# For each HPLC determination 200 μL of packed cells of 80-90% trophozoite infected cells were used. These were isolated from in vitro cultures by synchronization of the parasites in in vitro cultures using sterile D-sorbitol (L. Lambros and J. P. Vanderberg, Parasitol. 65, 418-420 (1979)) followed by separation of the trophozoites from non infected erythrocytes by Percoll gradients as described previously (A. M. Gero, H. V. Scott, W. J. O'Sullivan and R. I. Christopherson, Mol. Biochem. Parasitol. 34, 87-89 (1989)). Trophozoites were incubated at 37° C. for 2 hours with each compound to be tested. Compounds were incubated with both whole infected cells as whole and lyzed uninfected normal erythrocytes to determine:
# a) entry to the cell (whether they were transported);
# Drug incubation was terminated by centrifugation through silicon oil using the method of Upston and Gero (J. M. Upston and A. M. Gero, Biochem. Biophys. Acta. 1236, 249-258 (1995)). This procedure separated intact trophozoites from extracellular non-transported drug solution.
# The metabolism of nucleosides with potential chemotherapeutic activity was assessed by the analysis of cytoplasmic samples by reverse phase ion-pair high performance liquid chromatography (R. S. Toguzov, Y. V. Tikhonov, A. M. Pimenov, V. Prokudin, Journal of Chromatography, I. Biomedical Appl. 434, 447-453 (1988)). Nucleotides, nucleosides and bases were separated by this HPLC method.
# It has been established that transport and uptake in parasite invaded cells is different from that of normal blood erythrocytes (A. M. Gero & A. M. Wood, In: Pyrine & Pyrimidine Methabolism in Man VII, Part A. (R. A. Harkness et al., Eds) Plenum Press, NY, 169-172 (1991)). Invasion by the malaria parasite comprises the cell membrane, allowing penetration of unnatural substances of various size and shape, whereas normal cells are very selective in uptake. It was shown that L-nucleosides and their derivatives easily penetrate invaded cells, while they have a very slow rate of uptake into normal cells, if they enter at all. In order to obtain preliminary data on transport, uptake and metabolism, the HPLC method was used to analyze the following 10 Lipitek compounds: L-101, L-103, L-109, L-111, L-117, L-133, L-138, GCl 1007, GCl 1027, GCl 1069.
# These compounds were chosen for the identification of possible metabolites. In this experiment the compounds were incubated with both whole infected cells, and with whole and lysed uninfected cells, followed by the separation of unreacted compound and HPLC analysis.
# [2] = Table 1, 24 h drug exposure, up to 200 μM, read-out: IC50
# [3] = Plasmodium falciparum, 24 h, Table 1, 24 h drug exposure, up to 200 μM, read-out: IC50
# [4] = Plasmodium falciparum, Erythrocyte, 24 h, Table 6, SATE derivatives of FUdR, read-out: ID50 (the source's name)
# [5] = Plasmodium falciparum, Table 2, FUdR linkage position 5', read-out: IC50
# [6] = Plasmodium falciparum, Table 5, β-D-FUdR and possible metabolic products, read-out: IC50
molecule,measurement,setting,value
6-thio-β-L-purine [GCI 1076],IC50,P. falciparum; [2],> 200 µM
"O=c1[nH]cc(F)c(=O)[nH]1 [5FUracil, 5-fluorouracil, reference compound]",IC50,P. falciparum; Plasmodium falciparum,6 µM
"O=c1[nH]c(=O)n([C@@H]2OC[C@H](O)[C@@H]2O)cc1F [GCI 1007, α-L-erythrofuranosyl-5-fluorouracil]",IC50,P. falciparum; [3],> 200 µM
same,"toxicity against P. falciparum, in words",P. falciparum,toxic against P. falciparum
same,entry to the infected cell,[1],entered the infected cells
"Nc1ncnc2c1ncn2[C@@H]1O[C@@H](CO)[C@H](O)[C@H]1O [GCI 1018, α-L-arabinofuranosyl adenine]",IC50,"P. falciparum; Plasmodium falciparum, 24 h",> 200 µM
"O=c1[nH]c(=O)n([C@H]2C[C@@H](O)[C@H](CO)O2)cc1F [GCI 1027, 2'-deoxy-α-L-5-fluorouridine]","In vitro activity against P. falciparum, in words",P. falciparum,no activity
same,IC50,P. falciparum; [3],> 200 µM
same,IC50,P. falciparum; [4],> 200 µM
same,"toxicity against P. falciparum, in words",P. falciparum,toxic against P. falciparum
same,entry to the infected cell,[1],entered the infected cells
"Nc1nc2c(ncn2[C@H]2O[C@@H](CO)[C@H](O)[C@@H]2O)c(=O)[nH]1 [GCI 1030, β-L-G]",IC50,P. falciparum; [3],> 200 µM
"O=c1[nH]cnc2c1ncn2[C@H]1O[C@@H](CO)[C@H](O)[C@@H]1O [GCI 1033, β-L-I]",IC50,P. falciparum; [3],> 200 µM
"Nc1ncnc2c1ncn2[C@@H]1C[C@@H](O)[C@H](CO)O1 [GCI 1036, β-L-Da]",IC50,P. falciparum; [3],> 200 µM
"O=c1[nH]cnc2c1ncn2[C@@H]1C[C@@H](O)[C@H](CO)O1 [GCI 1037, β-L-dI]",IC50,P. falciparum; [3],> 200 µM
"Nc1ncnc2c1ncn2[C@@H]1O[C@@H](CO)[C@H](O)[C@@H]1O [GCI 1066, α-L-A]",IC50,"P. falciparum; Plasmodium falciparum, 24 h",> 200 µM
"Nc1ncnc2c1ncn2[C@H]1C[C@@H](O)[C@H](CO)O1 [GCI 1069, α-L-dA]",IC50,P. falciparum; [3],> 200 µM
same,"toxicity against P. falciparum, in words",P. falciparum,toxic against P. falciparum
same,entry to the infected cell,[1],entered the infected cells
"Nc1nc2c(ncn2[C@@H]2C[C@@H](O)[C@H](CO)O2)c(=O)[nH]1 [GCI 1070, β-L-dG]",IC50,P. falciparum; [3],> 200 µM
"Nc1ncnc2c1ncn2[C@@H]1CC[C@H](CO)O1 [GCI 1077, β-L-ddA]",IC50,P. falciparum; [3],> 200 µM
"Nc1ncnc2c1ncn2[C@H]1CC[C@H](CO)O1 [GCI 1079, α-L-ddA]",IC50,P. falciparum; [3],> 200 µM
"CNc1ncnc2c1ncn2[C@H]1O[C@@H](CO)[C@H](O)[C@@H]1O [GCI 1085, N^6 -methyl-β-L-A]",IC50,P. falciparum; [3],> 200 µM
"O=c1[nH]c(=O)n([C@H]2C[C@@H](OP(O)(=S)OC[C@H]3O[C@@H](n4cc(F)c(=O)[nH]c4=O)C[C@@H]3O)[C@H](CO)O2)cc1F (stereo partly drawn) [L-103 thio, [α-L,β-D]-FUdR, S = P-O]","In vitro activity against P. falciparum, in words",P. falciparum,reduced dramatically
same,IC50,P. falciparum; Plasmodium falciparum,> 200 µM
same,IC50,"P. falciparum; Plasmodium falciparum, 24 h",> 200 µM
Nc1ccn([C@@H]2C[C@@H](OP(=O)(O)OC[C@H]3O[C@@H](n4cc(F)c(=O)[nH]c4=O)C[C@@H]3O)[C@H](CO)O2)c(=O)n1 [L-113],IC50,P. falciparum; [3],17 µM
same,IC50,P. falciparum; [5],17 µM
same,IC50,"P. falciparum; Plasmodium falciparum, Table 3, β-L configuration of the L-nucleoside, read-out: IC50",17 µM
"O=c1ccn([C@@H]2C[C@@H](OP(O)(=S)OC[C@H]3O[C@@H](n4cc(F)c(=O)[nH]c4=O)C[C@@H]3O)[C@H](CO)O2)c(=O)[nH]1 (stereo partly drawn) [L-117 thio, β-L-dU, β-D-FUdR S = P-O]","In vitro activity against P. falciparum, in words",P. falciparum,reduced dramatically
same,IC50,P. falciparum; Plasmodium falciparum,> 200 µM
same,IC50,"P. falciparum; Plasmodium falciparum, 24 h",> 200 µM
"Nc1ncnc2c1ncn2[C@H]1C[C@@H](OP(=O)(O)OC[C@H]2O[C@@H](n3cc(F)c(=O)[nH]c3=O)C[C@@H]2O)[C@H](CO)O1 [L-125, α-L-dA, β-D-FUdR]","In vitro activity against P. falciparum, in words",P. falciparum,reduces the dimer activity in comparison with dimers containing the β-L unit
same,IC50,P. falciparum; [3],60 µM
same,IC50,P. falciparum; [5],60 µM
same,IC50,"P. falciparum; Plasmodium falciparum, Table 3, α-L configuration of the L-nucleoside, read-out: IC50",60 µM
"O=c1[nH]c(=O)n([C@H]2C[C@H](OP(O)(=S)OC[C@H]3O[C@@H](n4cc(F)c(=O)[nH]c4=O)C[C@@H]3O)[C@@H](CO)O2)cc1F (stereo partly drawn) [L-128, β-D, β-D-FUdR] S = P-O]","In vitro activity against P. falciparum, in words",P. falciparum,only active phosphorothioate analog; also recorded: greater in comparison with all possible products of hydrolysis; also recorded: most active compound tested
same,factor of increase in activity on replacing phosphate by phosphorothioate,P. falciparum; L-128 versus L-101,10
same,IC50,P. falciparum; Plasmodium falciparum,1.5 µM
same,IC50,"P. falciparum; Plasmodium falciparum, 24 h",1.5 µM
"Nc1ncnc2c1ncn2[C@@H]1C[C@@H](OP(O)(=S)OC[C@H]2O[C@@H](n3cc(F)c(=O)[nH]c3=O)C[C@@H]2O)[C@H](CO)O1 (stereo partly drawn) [L-138-thio, β-L-dA, β-D-FUdR, S = P-O]","In vitro activity against P. falciparum, in words",P. falciparum,reduced dramatically
same,IC50,"P. falciparum; Plasmodium falciparum, 24 h",100 µM
"O=[N+]([O-])c1ccc(CSc2ncnc3c2ncn3[C@@H]2O[C@H](CO)[C@@H](O)[C@H]2O)cc1 [NBMPR, nitrobenzylthionosine, reference compound]",IC50,P. falciparum; [3],100 µM
"O=c1[nH]c(=O)n([C@H]2C[C@H](O)[C@@H](COP(=O)(O)O)O2)cc1F [β-D-5'-FUdRmP, β-D-FUdR monophosphate, reference compound]",IC50,P. falciparum; [6],50 µM
"O=c1[nH]c(=O)n([C@H]2C[C@H](O)[C@@H](CO)O2)cc1F [β-D-FUdR, β-D-5-fluoro-2'-deoxyuridine, reference compound]",IC50,P. falciparum; [6],34 µM
"O=c1[nH]c(=O)n([C@@H]2C[C@@H](O)[C@H](CO)O2)cc1F [β-L-FUdR, β-L-5-fluoro-2'-deoxyuridine]",IC50,P. falciparum; [4],> 200 µM
α-L-FUdR 5'SATE [B06],IC50,P. falciparum; [2],150 µM
"α-L-dT, NBMPR [L-146]",IC50,P. falciparum; [2],> 200 µM
β-D-FUdR 3'-5'SATE [B03],IC50,P. falciparum; [2],6 µM
β-D-FUdR 3'SATE [B01],IC50,P. falciparum; [2],100 µM
β-D-FUdR 5'SATE [B02],IC50,P. falciparum; [2],60 µM
"β-D-FUdR, β-L-A [L-144]",IC50,P. falciparum; [2],140 µM
same,IC50,"P. falciparum; Table 2, FUdR linkage position 3', read-out: IC50",140 µM
β-L-FUdR 5'SATE [B04],IC50,P. falciparum; [2],200 µM
"β-L-dU, NBMPR [L-145]",IC50,P. falciparum; [2],> 200 µM
β-L-mercapto-G [GCI 1034],IC50,P. falciparum; [2],> 200 µM
